Experimental data from patent US20250154138A1, “Small Molecule IL-17A Modulators” (BeiGene, Ltd., priority 2022, published 2025).

Assays:
[1] = test system: IL-17-induced GROα secretion from HT-29 cells; experiment: GROα release assay in human colorectal adenocarcinoma epithelial cell (HT-29, ELISA); assay type: cell-based; conditions: Homo sapiens, HT-29, 48 h, 10 ng/mL IL-17A, highest concentration 10 μM, read-out: Cellular assay HT29 cell/CXCL1 IC50
How it was run: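 IC50 values come from four-parameter fits of GROα levels, quantified by ELISA (450 nm, standard curve) in supernatants. Compounds, 4-fold serially diluted from 10 μM, were mixed 15 min with IL-17A (10 ng/mL final) before 48 h incubation with HT-29 cells at 37°C.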

[2] = biological target: human IL-17A / human IL-17RA (Homo sapiens (Human), UniProt Q16552); experiment: Human IL-17A biochemical assay (HTRF, blocking of IL-17A binding to IL-17RA); conditions: 0.4 nM IL-17A, 0.3 nM IL-17RA, max compound concentration 10 uM
Sequence of human IL-17A / human IL-17RA (Q16552 24-155): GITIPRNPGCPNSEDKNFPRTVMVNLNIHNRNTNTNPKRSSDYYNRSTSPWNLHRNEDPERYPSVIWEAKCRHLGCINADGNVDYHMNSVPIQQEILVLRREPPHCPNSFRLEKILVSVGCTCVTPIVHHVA
How it was run: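 In this time-resolved fluorescence format, the cytokine (0.4 nM) is exposed to compound for 3 h before 0.3 nM receptor is added for 1 h, with all incubations at room temperature in HEPES buffer, pH 7.5. The 620/665 nm signal ratio gives percent inhibition, and IC50 is taken from a 4-parameter curve.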

| Structure (SMILES) | IC50 [1] [nM] | IC50 [2] [nM] |
| --- | --- | --- |
| CNC(=O)C1(N2C(=O)NC3CCC2C3)Cc2ccc(NC(=O)[C@@H](NC(=O)c3ccnn3C)C3CCCCC3)cc2C1 (stereo partly drawn) [Example 144, N-((1S)-1-cyclohexyl-2-((2-(methylcarbamoyl)-2-(3-oxo-2,4-diazabicyclo[3.2.1]octan-2-yl)-2,3-dihydro-1H-inden-5-yl)amino)-2-oxoethyl)-1-methyl-1H-pyrazole-5-carboxamide] | 182 | 48.6 |
| CCC1CNC(=O)N(C2(C(=O)NC)Cc3ccc(NC(=O)[C@@H](NC(=O)c4ccnn4C)C4CCCCC4)cc3C2)C1 (stereo partly drawn) [Example 75, N-((1S)-1-cyclohexyl-2-((2-(5-ethyl-2-oxotetrahydropyrimidin-1(2H)-yl)-2-(methylcarbamoyl)-2,3-dihydro-1H-inden-5-yl)amino)-2-oxoethyl)-1-methyl-1H-pyrazole-5-carboxamide] | 186 | 33 |
| CNC(=O)C1(N2CC(C(C)C)NC2=O)Cc2ccc(NC(=O)[C@@H](NC(=O)c3ccnn3C)C3CCCCC3)cc2C1 (stereo partly drawn) [Example 38, N-((1S)-1-cyclohexyl-2-((2-(4-isopropyl-2-oxoimidazolidin-1-yl)-2-(methylcarbamoyl)-2,3-dihydro-1H-inden-5-yl)amino)-2-oxoethyl)-1-methyl-1H-pyrazole-5-carboxamide] | 156 | 46 |
| Cc1nonc1C(=O)N[C@H](C(=O)Nc1ccc2c(c1)CC(N1C[C@@H](C(C)C)NC1=O)C2)C(C1CC1)C1CC1 (stereo partly drawn) [Example 231, N-((2S)-1,1-dicyclopropyl-3-((2-((R)-4-isopropyl-2-oxoimidazolidin-1-yl)-2,3-dihydro-1H-inden-5-yl)amino)-3-oxopropan-2-yl)-4-methyl-1,2,5-oxadiazole-3-carboxamide] | 1970 | 1080 |
| Cc1nonc1C(=O)N[C@H](C(=O)Nc1ccc2c(c1)CC(C#N)(N1C[C@@H](C(C)C)NC1=O)C2)C(C1CC1)C1CC1 (stereo partly drawn) [Example 266, N-((2S)-1-((2-cyano-2-((R)-4-isopropyl-2-oxoimidazolidin-1-yl)-2,3-dihydro-1H-inden-5-yl)amino)-3,3-dicyclopropyl-1-oxopropan-2-yl)-4-methyl-1,2,5-oxadiazole-3-carboxamide] | 659 | 912 |
| CC(C)n1nccc1C(=O)N[C@H](C(=O)Nc1ccc2c(c1)CC(c1ncc(-c3ccccc3)[nH]1)(N1CC3(CC3)CNC1=O)C2)C(C1CC1)C1CC1 (stereo partly drawn) [Example 206, N-((2S)-1,1-dicyclopropyl-3-oxo-3-((2-(6-oxo-5,7-diazaspiro[2.5]octan-5-yl)-2-(5-phenyl-1H-imidazol-2-yl)-2,3-dihydro-1H-inden-5-yl)amino)propan-2-yl)-1-isopropyl-1H-pyrazole-5-carboxamide] | 32.5 | 270 |
| CNC(=O)C1(N2CC(CC3CC3)NC2=O)Cc2ccc(NC(=O)[C@@H](NC(=O)c3ccnn3C)C3CCCCC3)cc2C1 (stereo partly drawn) [Example 65, N-((1S)-1-cyclohexyl-2-((2-(4-(cyclopropylmethyl)-2-oxoimidazolidin-1-yl)-2-(methylcarbamoyl)-2,3-dihydro-1H-inden-5-yl)amino)-2-oxoethyl)-1-methyl-1H-pyrazole-5-carboxamide] | 2030 | 713 |
| Cc1nonc1C(=O)N[C@H](C(=O)Nc1ccc2c(c1)CC(N1CC(C(F)(F)F)NC1=O)(C(C)(C)O)C2)C(C1CC1)C1CC1 (stereo partly drawn) [Example 279, N-((2S)-1,1-dicyclopropyl-3-((2-(2-hydroxypropan-2-yl)-2-(2-oxo-4-(trifluoromethyl)imidazolidin-1-yl)-2,3-dihydro-1H-inden-5-yl)amino)-3-oxopropan-2-yl)-4-methyl-1,2,5-oxadiazole-3-carboxamide] | 69.1 | 64.8 |
| CNC(=O)C1(N2CC3(CC3)CNC2=O)CCc2cc(NC(=O)[C@@H](NC(=O)c3ccnn3C)C3CCCCC3)sc2C1 (stereo partly drawn) [Example 145, N-((1S)-1-cyclohexyl-2-((6-(methylcarbamoyl)-6-(6-oxo-5,7-diazaspiro[2.5]octan-5-yl)-4,5,6,7-tetrahydrobenzo[b]thiophen-2-yl)amino)-2-oxoethyl)-1-methyl-1H-pyrazole-5-carboxamide] | 454 | 139 |
| Cc1nonc1C(=O)N[C@H](C(=O)Nc1ccc2c(c1)CC(C(=O)Nc1ccccc1)(N1C[C@@H](C(C)C)NC1=O)C2)C(C1CC1)C1CC1 (stereo partly drawn) [Example 234, N-((2S)-1,1-dicyclopropyl-3-((2-((R)-4-isopropyl-2-oxoimidazolidin-1-yl)-2-(phenylcarbamoyl)-2,3-dihydro-1H-inden-5-yl)amino)-3-oxopropan-2-yl)-4-methyl-1,2,5-oxadiazole-3-carboxamide] | 207 | 340 |
| Cc1nonc1C(=O)N[C@H](C(=O)Nc1ccc2c(c1)CC(c1c[nH]c(C3CC3)n1)(N1C[C@@H](C(C)C)NC1=O)C2)C(C1CC1)C1CC1 (stereo partly drawn) [Example 252, N-((2S)-1,1-dicyclopropyl-3-((2-(2-cyclopropyl-1H-imidazol-4-yl)-2-((R)-4-isopropyl-2-oxoimidazolidin-1-yl)-2,3-dihydro-1H-inden-5-yl)amino)-3-oxopropan-2-yl)-4-methyl-1,2,5-oxadiazole-3-carboxamide] | 1160 | 829 |
| Cn1nccc1C(=O)N[C@H](C(=O)Nc1ccc2c(c1)CC(C(=O)C(F)(F)F)(N1CC3(CC3)CNC1=O)C2)C1CCCCC1 (stereo partly drawn) [Example 193, N-((1S)-1-cyclohexyl-2-oxo-2-((2-(6-oxo-5,7-diazaspiro[2.5]octan-5-yl)-2-(2,2,2-trifluoroacetyl)-2,3-dihydro-1H-inden-5-yl)amino)ethyl)-1-methyl-1H-pyrazole-5-carboxamide] | 140 | 50.7 |
| CNC(=O)C1(N2CC3(CC3)CNC2=O)Cc2ccc(NC(=O)[C@@H](NC(=O)c3ccnn3C)C3CCCCC3)cc2C1 (stereo partly drawn) [Example 102, N-((1S)-1-cyclohexyl-2-((2-(methylcarbamoyl)-2-(6-oxo-5,7-diazaspiro[2.5]octan-5-yl)-2,3-dihydro-1H-inden-5-yl)amino)-2-oxoethyl)-1-methyl-1H-pyrazole-5-carboxamide] | 17.3 | 9.5 |
| Cc1nonc1C(=O)N[C@H](C(=O)Nc1ccc2c(c1)CC(c1cn3ccccc3n1)(N1CC3(CC3)CNC1=O)C2)C(C1CC1)C1CC1 (stereo partly drawn) [Example 222, N-((2S)-1,1-dicyclopropyl-3-((2-(imidazo[1,2-a]pyridin-2-yl)-2-(6-oxo-5,7-diazaspiro[2.5]octan-5-yl)-2,3-dihydro-1H-inden-5-yl)amino)-3-oxopropan-2-yl)-4-methyl-1,2,5-oxadiazole-3-carboxamide] | 66.6 | 34.3 |
| CNC(=O)C1(N2CC3(CC3)CNC2=O)Cc2ccc(NC(=O)C(NC(=O)c3ccnn3C)C3CCC(CC(F)(F)F)CC3)cc2C1 (stereo not drawn) [Example 168, 1-methyl-N-(2-((2-(methylcarbamoyl)-2-(6-oxo-5,7-diazaspiro[2.5]octan-5-yl)-2,3-dihydro-1H-inden-5-yl)amino)-2-oxo-1-(4-(2,2,2-trifluoroethyl)cyclohexyl)ethyl)-1H-pyrazole-5-carboxamide] | 60.5 | 32.8 |
| CNC(=O)C1(N2CC3(CC3)CNC2=O)Cc2ccc(NC(=O)[C@@H](NC(=O)c3ccnn3C3CC(O)C3)C3CCCCC3)cc2C1 (stereo partly drawn) [Example 132, N-((1S)-1-cyclohexyl-2-((2-(methylcarbamoyl)-2-(6-oxo-5,7-diazaspiro[2.5]octan-5-yl)-2,3-dihydro-1H-inden-5-yl)amino)-2-oxoethyl)-1-(3-hydroxycyclobutyl)-1H-pyrazole-5-carboxamide] | 178 | 66 |
| CC1CN(Cc2cc3cc(NC(=O)[C@@H](NC(=O)c4ccnn4C)C4CCCCC4)ccc3[nH]2)C(=O)N1 (stereo partly drawn) [Example 12, N-((1S)-1-cyclohexyl-2-((2-((4-methyl-2-oxoimidazolidin-1-yl)methyl)-1H-indol-5-yl)amino)-2-oxoethyl)-1-methyl-1H-pyrazole-5-carboxamide] | > 10000 | 13000 |
| Cn1nccc1C(=O)N[C@H](C(=O)Nc1ccc2c(c1)OCC(CN1CC(C(F)(F)F)NC1=O)C2)C1CCCCC1 (stereo partly drawn) [Example 291, N-((1S)-1-cyclohexyl-2-oxo-2-((3-(((S)-2-oxo-4-(trifluoromethyl)imidazolidin-1-yl)methyl)chroman-7-yl)amino)ethyl)-1-methyl-1H-pyrazole-5-carboxamide] | 1060 | 1550 |
| CNC(=O)C1(N2CC(C(C)COC)NC2=O)Cc2ccc(NC(=O)[C@@H](NC(=O)c3ccnn3C)C3CCCCC3)cc2C1 (stereo partly drawn) [Example 35, N-((1S)-1-cyclohexyl-2-((2-(4-(1-methoxypropan-2-yl)-2-oxoimidazolidin-1-yl)-2-(methylcarbamoyl)-2,3-dihydro-1H-inden-5-yl)amino)-2-oxoethyl)-1-methyl-1H-pyrazole-5-carboxamide] | 2020 | 293 |
| CNC(=O)C1(N2C[C@@H](C(C)C)NC2=O)CCc2cc3[nH]c([C@@H](NC(=O)c4ccnn4C)C4CCCCC4)nc3cc2C1 (stereo partly drawn) [Example 123, 2-((S)-cyclohexyl(1-methyl-1H-pyrazole-5-carboxamido)methyl)-6-((R)-4-isopropyl-2-oxoimidazolidin-1-yl)-N-methyl-5,6,7,8-tetrahydro-1H-naphtho[2,3-d]imidazole-6-carboxamide] | 61.6 | 441 |
| Cc1nocc1C(=O)N[C@H](C(=O)Nc1ccc2c(c1)CC(N1C[C@@H](C(F)(F)F)NC1=O)C2)C(C1CC1)C1CC1 (stereo partly drawn) [Example 218, N-((2S)-1,1-dicyclopropyl-3-oxo-3-((2-((S)-2-oxo-4-(trifluoromethyl)imidazolidin-1-yl)-2,3-dihydro-1H-inden-5-yl)amino)propan-2-yl)-3-methylisoxazole-4-carboxamide] | 385 | 141 |
